Read-outs that look alike come from different tables or passages of the source.
Test system: iCell cardiomyocytes (human iPSC-derived cardiomyocytes)
Assay: Intracellular Ca2+ flux / beating parameters in iCell cardiomyocytes (FLIPR tetra), 90 min or 24 h
Type: cell-based
Conditions: Homo sapiens, Cardiomyocyte, 0.00 µM = 100.00; for activity at 0.1 µM: 0.10 µM
Method in brief: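 PODs were defined as the concentration crossing one SD of the vehicle-control means (0.5% DMSO) on four-parameter logistic fits of Ca2+ trace metrics (peak height, frequency, peak-spacing CV, decay/rise ratio). Traces came from 100 s, 8 Hz FLIPR reads at 37 °C on calcium-dye-loaded iCell cardiomyocytes. Before reading, cells were treated for 90 min or 24 h from 5× chemical plates spanning 0.05–500 µM, in triplicate.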

[1] = 1.5 h, read-out: cm.amp.avg.90min
[2] = 1.5 h, read-out: cm.amp.cv.90min
[3] = 1.5 h, read-out: cm.decay.rise.90min
[4] = 1.5 h, read-out: cm.spacing.cv.90min
[5] = 24 h, read-out: cm.amp.avg.24hrs
[6] = 24 h, read-out: cm.amp.cv.24hrs
[7] = 24 h, read-out: cm.decay.rise.24hrs
[8] = 24 h, read-out: cm.spacing.cv.24hrs

`Oc1ccc(O)c(-c2ccc(Cl)cc2)c1` [2',5'-DiOH PCB3] was tested, and the activity at 0.01 µM [1] was 102%, the activity at 0.01 µM [2] was 90% and the activity at 0.01 µM (1.5 h, read-out: cm.bpm.90min) was 99.1%. It also gave an activity at 0.01 µM [3] of 97.4%, an activity at 0.01 µM [4] of 113% and an activity at 0.1 µM [1] of 105%. It also gave an activity at 0.1 µM [2] of 110%, an activity at 0.1 µM (1.5 h, read-out: cm.bpm.90min) of 100% and an activity at 0.1 µM [3] of 95.6%. It also gave an activity at 0.1 µM [4] of 94%, an activity at 1 µM [1] of 106% and an activity at 1 µM [2] of 93.3%. The activity at 1 µM (1.5 h, read-out: cm.bpm.90min) was 92.8%, the activity at 1 µM [3] was 98.3% and the activity at 1 µM [4] was 107%. For the same compound, the activity at 10 µM [1] was 110%, the activity at 10 µM [2] was 112% and the activity at 10 µM (1.5 h, read-out: cm.bpm.90min) was 104%. It also gave an activity at 10 µM [3] of 105%, an activity at 10 µM [4] of 132% and an activity at 100 µM [1] of 9.07%. It also gave an activity at 100 µM [2] of 380%, an activity at 100 µM (1.5 h, read-out: cm.bpm.90min) of 7.52% and an activity at 100 µM [3] of 21.5%. It also gave an activity at 100 µM [4] of 381%, an activity at 0.01 µM [5] of 161% and an activity at 0.01 µM [6] of 75.5%. The activity at 0.01 µM (24 h, read-out: cm.bpm.24hrs) was 105%, the activity at 0.01 µM [7] was 98.5% and the activity at 0.01 µM [8] was 110%. The activity at 0.1 µM [5] was 147%, the activity at 0.1 µM [6] was 75% and the activity at 0.1 µM (24 h, read-out: cm.bpm.24hrs) was 100%. It also gave an activity at 0.1 µM [7] of 101%, an activity at 0.1 µM [8] of 93.3% and an activity at 1 µM [5] of 141%. It also gave an activity at 1 µM [6] of 69.9%, an activity at 1 µM (24 h, read-out: cm.bpm.24hrs) of 92.6% and an activity at 1 µM [7] of 109%. It also gave an activity at 1 µM [8] of 89%, an activity at 10 µM [5] of 0% and an activity at 10 µM [6] of 0%. It also gave an activity at 10 µM (24 h, read-out: cm.bpm.24hrs) of 0%, an activity at 10 µM [7] of 0% and an activity at 10 µM [8] of 0%. The activity at 100 µM [5] was 0%, the activity at 100 µM [6] was 0% and the activity at 100 µM (24 h, read-out: cm.bpm.24hrs) was 0%. The activity at 100 µM [7] was 0% and the activity at 100 µM [8] was 0%.
`Oc1ccc(-c2ccc(Cl)cc2)cc1` [4'-OH PCB3] was tested, and the activity at 0.01 µM [1] was 95.4%, the activity at 0.01 µM [2] was 111% and the activity at 0.01 µM (1.5 h, read-out: cm.bpm.90min) was 97.8%. It also gave an activity at 0.01 µM [3] of 97.5%, an activity at 0.01 µM [4] of 120% and an activity at 0.1 µM [1] of 101%. For the same compound, the activity at 0.1 µM [2] was 107%, the activity at 0.1 µM (1.5 h, read-out: cm.bpm.90min) was 100% and the activity at 0.1 µM [3] was 97.1%. The activity at 0.1 µM [4] was 108%, the activity at 1 µM [1] was 105% and the activity at 1 µM [2] was 100%. It also gave an activity at 1 µM (1.5 h, read-out: cm.bpm.90min) of 104%, an activity at 1 µM [3] of 95.9% and an activity at 1 µM [4] of 106%. It also gave an activity at 10 µM [1] of 97.2%, an activity at 10 µM [2] of 100% and an activity at 10 µM (1.5 h, read-out: cm.bpm.90min) of 118%. It also gave an activity at 10 µM [3] of 89.6%, an activity at 10 µM [4] of 116% and an activity at 100 µM [1] of 0%. The activity at 100 µM [2] was 0%, the activity at 100 µM (1.5 h, read-out: cm.bpm.90min) was 0% and the activity at 100 µM [3] was 0%. It also gave an activity at 100 µM [4] of 0%, an activity at 0.01 µM [5] of 91% and an activity at 0.01 µM [6] of 37.2%. For the same compound, the activity at 0.01 µM (24 h, read-out: cm.bpm.24hrs) was 53.5%, the activity at 0.01 µM [7] was 43% and the activity at 0.01 µM [8] was 53.2%. The activity at 0.1 µM [5] was 31.1%, the activity at 0.1 µM [6] was 82.3% and the activity at 0.1 µM (24 h, read-out: cm.bpm.24hrs) was 54.4%. The activity at 0.1 µM [7] was 43.8%, the activity at 0.1 µM [8] was 53.7% and the activity at 1 µM [5] was 32%. For the same compound, the activity at 1 µM [6] was 67.1%, the activity at 1 µM (24 h, read-out: cm.bpm.24hrs) was 49.6% and the activity at 1 µM [7] was 51%. The activity at 1 µM [8] was 47.2%, the activity at 10 µM [5] was 54.4% and the activity at 10 µM [6] was 55%. It also gave an activity at 10 µM (24 h, read-out: cm.bpm.24hrs) of 48.7%, an activity at 10 µM [7] of 58.5% and an activity at 10 µM [8] of 51.4%. It also gave an activity at 100 µM [5] of 0%, an activity at 100 µM [6] of 0% and an activity at 100 µM (24 h, read-out: cm.bpm.24hrs) of 0%. It also gave an activity at 100 µM [7] of 0% and an activity at 100 µM [8] of 0%.
